ChEMBL document CHEMBL1138393, “Structure-activity relationships of novel non-competitive mGluR1 antagonists: a potential treatment for chronic pain” (Bioorg Med Chem Lett, 2007)

Columns and labels:
[1] = Lipophilicity, log D of the compound; format: physicochemical; conditions: octanol/water
[2] = Permeability in artificial membrane assessed as diffusion rate by PAMPA assay; format: ADME; conditions: read-out: permeability

Structure (SMILES) | logD [1] | Papp [2] [×10⁻⁶ cm/s]
CC(C)(CNC(=O)c1cnc(N2CCC(CO)CC2)cn1)c1ccccc1 | 3.5 | –
CCN(C)c1cncc(C(=O)NC2Cc3ccccc3C2)n1 | 3.6 | –
CC(CN(C)C)N(C)c1cnc(C(=O)NCC(C)(C)c2ccccc2)cn1 (stereo not drawn) | 2 | –
CC(C)(CNC(=O)c1cnc(N2CCCCC2)cn1)c1ccccc1 | 4.5 | –
O=C(NCC1CC1)c1cncc(NCCc2cccc(O)c2)n1 | 3.2 | –
C[C@H]1CC[C@H](NC(=O)c2cnc(N3CCC(CO)CC3)cn2)CC1 | 3.3 | 25.5
CC(C)(CNC(=O)c1cncc(-c2ccccc2)n1)c1ccccc1 | 2.6 | –
CN(CCC#N)c1cnc(C(=O)NCC(C)(C)c2ccccc2)cn1 | 2.9 | –
CC(C)(CNC(=O)c1cnc2ccccc2n1)c1ccccc1 | 4 | –
CCCCN(C)c1cncc(C(=O)NC2CCCCCC2)n1 | 3.8 | –
O=C(NC1CCCCCC1)c1cnc(N2CCCCC2)cn1 | 3.9 | –
C[C@H]1CC[C@H](NC(=O)c2cnc(N3CCCCC3)cn2)CC1 | 4.4 | –
CC(C)(CNC(=O)c1cnc(-c2ccccc2)cn1)c1ccccc1 | 3.4 | –
CN(CCO)c1cncc(C(=O)NCC(C)(C)c2ccccc2)n1 | 2.7 | –
CC(C)(CNC(=O)c1cncc(N[C@@H](CO)c2ccccc2)n1)c1ccccc1 | 3.6 | –
O=C(NCC1CC1)c1cncc(N2CCCN(Cc3ccccc3)CC2)n1 | 3 | –
CC(C)(CNC(=O)c1cncc(N2CCCCC2)n1)c1ccccc1 | 4.4 | –
